Assay [1] has as its target T1, Mcl-1/Bim interaction, recombinant human Mcl-1 (171-327) (Homo sapiens, UniProt Q07820).
T1 construct: made in house
In words: Cell free Mcl-1: Bim Affinity Assay (Mcl-1 HTRF). It is filed as binding. The gist of the method: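 TR-FRET competition assay with biotinylated human Bim peptide (residues 51-76); reaction plates incubated overnight before reading. IC50 values came from duplicate data fitted to a four-parameter sigmoidal competition curve.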
Background: In TR-FRET formats the signal depends on donor and acceptor labels being close together.

Assay [2] deals with OPM-2 human multiple myeloma cell line. Nature of the assay: Cell Viability Assay (OPM-2 10 FBS). It is filed as cell-based. The following applies: OPM-2 cells, CellTiter-Glo. The gist of the method:
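ATP-based luminescence (CellTiter-Glo) measured after a 16 h compound treatment of OPM-2 cells seeded at 3000 cells/well in 10% FBS medium. IC50 values derived by 4-parameter logistic fitting of serial dilutions.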
For orientation: Cellular ATP, detected with luciferase, serves as a proxy for viable cell number.

[3] abbreviates: TR-FRET, 0.1 nM Mcl-1 (171-327), 0.05 nM biotin-Bim (51-76).
Where [4] appears, read: Homo sapiens, OPM-2, 16 h, 16 h.
The mark [5] stands for this setting: cell free Mcl-1:Bim TR-FRET, recombinant human Mcl-1 (171-327).
Setting [6] is: Homo sapiens, OPM-2, 16 h, 16 h incubation.

As usually defined, the IC50 is the concentration at which inhibition is half-maximal.

T1 sequence (Q07820 171-327): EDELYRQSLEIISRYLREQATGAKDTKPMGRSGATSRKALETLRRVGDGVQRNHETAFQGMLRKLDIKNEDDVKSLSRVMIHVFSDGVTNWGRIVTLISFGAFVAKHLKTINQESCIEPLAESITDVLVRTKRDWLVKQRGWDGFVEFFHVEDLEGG

For `C[C@@H]1[C@@H](C)C/C=C/[C@H](OCCN2CC(F)(F)C2)[C@@H]2CC[C@H]2CN2C[C@@]3(CCCc4cc(Cl)ccc43)COc3ccc(cc32)C(=O)NS1(=O)=O` [Example 9, (1S,3′R,6′R,7′S,8′E,11′S,12′R)-6-chloro-7′-(2-(3,3-difluoro-1-azetidinyl)ethoxy)-11′,12′-dimethyl-3,4-dihydro-2H,15′H-spiro[naphthalene-1,22′-[20]oxa[13]thia[1,14]diazatetracyclo[14.7.2.0^3,6.0^19,24]pentacosa[8,16,18,24]tetraen]-15′-one 13′,13′-dioxide], the IC50 in assay [1] (setting [3]) was 0.63 nM; in assay [2] (setting [4]) it was 155 nM.
Take `CO[C@H]1C/C=C/[C@H](O)[C@@H]2CC[C@H]2CN2C[C@@]3(CCCc4cc(Cl)ccc43)COc3ccc(cc32)C(=O)NS(=O)(=O)[C@@H]1CC1CC1` (single isomer, unassigned) [Example 574]: the IC50 is 0.393 nM in assay [1] (setting [5]) and 188 nM in assay [2] (16 h).
Turning to `C[C@@H]1CC/C=C/[C@H](O)[C@@H]2CC[C@H]2CN2C[C@@]3(CCC(F)(F)c4cc(Cl)ccc43)COc3ccc(cc32)C(=O)NS1(=O)=O` [Example 8, (1S,3′R,6′R,7′S,8′E,12′R)-6-chloro-4,4-difluoro-7′-hydroxy-12′-methyl-3,4-dihydro-2H,15′H-spiro[naphthalene-1,22′-[20]oxa[13]thia[1,14]diazatetracyclo[14.7.2.0^3,6.0^19,24]pentacosa [8,16,18,24]tetraen]-15′-one 13′,13′-dioxide], the IC50 turned out to be 0.564 nM in assay [1] (setting [3]) and 1460 nM in assay [2] (setting [4]).
The like results for `CC(=O)O[C@H]1/C=C/C[C@@H]2CCCN2S(=O)(=O)NC(=O)c2ccc3c(c2)N(C[C@@H]2CC[C@H]21)C[C@@]1(CCCc2cc(Cl)ccc21)CO3` (single isomer, unassigned) [Example 346] were, in that order, 1.9 nM and 2270 nM.
`O=C1NS(=O)(=O)C[C@@H](C2CC2)C/C=C/[C@H](O)[C@@H]2CC[C@H]2CN2C[C@@]3(CCCc4cc(Cl)ccc43)COc3ccc1cc32` (single isomer, unassigned) [Example 683]: the IC50 is 2.31 nM in assay [1] (setting [5]) and 2090 nM in assay [2] (16 h).
For `O=C1NS(=O)(=O)[C@@H]2CCC[C@H](/C=C/[C@H](O)[C@@H]3CC[C@H]3CN3C[C@@]4(CCCc5cc(Cl)ccc54)COc4ccc1cc43)C2` (single isomer, unassigned) [Example 109], the IC50 in assay [1] (setting [3]) was determined as 1.34 nM; in assay [2] (16 h) it was 12200 nM.
On to `COCCOCCN1[C@@H](C)C/C=C/[C@H](O)[C@@H]2CC[C@H]2CN2C[C@@]3(CCCc4cc(Cl)ccc43)COc3ccc(cc32)C(=O)NS1(=O)=O` [Example 25, (1S,3′R,6′R,7′S,8′E,11′S)-6-chloro-7′-hydroxy-12′-(2-(2-methoxyethoxy)ethyl)-11′-methyl-3,4-dihydro-2H,15′H-spiro[naphthalene-1,22′-[20]oxa[13]thia[1,12,14]triazatetracyclo[14.7.2.0^3,6.0^19,24]pentacosa[8,16,18,24]tetraen]-15′-one 13,13′-dioxide], for which the IC50 is 0.246 nM in assay [1] (setting [3]) and 166 nM in assay [2] (setting [4]).
The like results for `C[C@@H]1[C@@H](C)C/C=C/[C@H](OCC(=O)N2CCOCC2)[C@@H]2CC[C@H]2CN2C[C@@]3(CCCc4cc(Cl)ccc43)COc3ccc(cc32)C(=O)NS1(=O)=O` [Example 313, (1S,3′R,6′R,7′S,8′E,11′S,12′R)-6-chloro-11′,12′-dimethyl-7′-(2-(4-morpholinyl)-2-oxoethoxy)-3,4-dihydro-2H,15′H-spiro[naphthalene-1,22′-[20]oxa[13]thia[1,14]diazatetracyclo[14.7.2.0^3,6.0^19,24]pentacos [8,16,18,24]tetraen]-15′-one 13′,13′-dioxide] were, in that order, 0.185 nM and 220 nM.
On to `C[C@@H]1CS(=O)(=O)NC(=O)c2ccc3c(c2)N(C[C@@H]2CC[C@H]2[C@@H]2C[C@H](CCO2)O1)C[C@@]1(CCCc2cc(Cl)ccc21)CO3` (single isomer, unassigned) [Example 922], for which the IC50 came to 0.975 nM in assay [1] (setting [5]) and 2400 nM in assay [2] (16 h).
Turning to `C[C@@H]1CC/C=C/[C@H](OCc2nc[nH]n2)[C@@H]2CC[C@H]2CN2C[C@@]3(CCCc4cc(Cl)ccc43)COc3ccc(cc32)C(=O)NS1(=O)=O` [Example 958, (1S,3′R,6′R,7′S,8′E,12′R)-6-chloro-12′-methyl-7′-(4H-1,2,4-triazol-3-ylmethoxy)-3,4-dihydro-2H,15′H-spiro[naphthalene-1,22′-[20]oxa[13]thia[1,14]diazatetracyclo[14.7.2.0^3,6.0^19,24]pentacosa [8,16,18,24]tetraen]-15′-one 13′,13′-dioxide], the figures for the concentration for half-maximal inhibition (IC50) in assay [1] (setting [3]) and in assay [2] (setting [6]) were 0.253 nM and 3890 nM, respectively.
For `C[C@@H]1[C@@H](C)S(=O)(=O)NC(=O)c2ccc3c(c2)N(C[C@@H]2CC[C@H]2[C@@H](O)/C=C/[C@@H]1C)C[C@@]1(CCCc2cc(Cl)ccc21)CO3` (single isomer, unassigned) [Example 1041], the IC50 in assay [1] (setting [3]) is 0.183 nM; in assay [2] (setting [6]), 77.2 nM.
Regarding `COC(=O)CC[C@@]1(C)CC/C=C\[C@H](O)[C@@H]2CC[C@H]2CN2C[C@@]3(CCCc4cc(Cl)ccc43)COc3ccc(cc32)C(=O)NS1(=O)=O` (single isomer, unassigned) [Example 563], the figures for the IC50 in assay [1] (setting [5]) and in assay [2] (16 h) were 2.69 nM and 4500 nM, respectively.
Consider `COCC[C@H]1[C@@H](C)C/C=C/[C@H](OC)[C@@H]2CC[C@H]2CN2C[C@@]3(CCCc4cc(Cl)ccc43)COc3ccc(cc32)C(=O)NS1(=O)=O` (single isomer, unassigned) [Example 396], for which the IC50 in assay [1] (setting [3]) turned out to be 0.384 nM; in assay [2] (16 h), 186 nM.
With `O=C1NS(=O)(=O)CCC/C=C/[C@@H](O)[C@@H]2CC[C@H]2CN2C[C@@]3(CCCc4cc(Cl)ccc43)COc3ccc1cc32` [Example 952, (1S,3′R,6′R,7′R,8′E)-6-chloro-7′-hydroxy-3,4-dihydro-2H,15′H-spiro[naphthalene-1,22′-[20]oxa[13]thia[1,14]diazatetracyclo[14.7.2.0^3,6.0^19,24]pentacosa [8,16,18,24]tetraen]-15′-one 13′,13′-dioxide], the concentration for half-maximal inhibition (IC50) in assay [1] (setting [3]) was 1.28 nM; in assay [2] (Homo sapiens, 16 h incubation), 6380 nM.
Consider `CO[C@@H]1/C=C/[C@H](O)[C@@H]2CC[C@H]2CN2C[C@@]3(CCCc4cc(Cl)ccc43)COc3ccc(cc32)C(=O)NS(=O)(=O)[C@H](C)C1` (single isomer, unassigned) [Example 489], for which the IC50 in assay [1] (setting [5]) worked out at 0.666 nM; in assay [2] (16 h) it was 1220 nM.
For the compound `C[C@@H]1[C@@H](C)C/C=C/[C@H](OCC(=O)N2CC(O)(C(F)(F)F)C2)[C@@H]2CC[C@H]2CN2C[C@@]3(CCCc4cc(Cl)ccc43)COc3ccc(cc32)C(=O)NS1(=O)=O` [Example 306, (1S,3′R,6′R,7′S,8′E,11′S,12′R)-6-chloro-7′-(2-(3-hydroxy-3-(trifluoromethyl)-1-azetidinyl)-2-oxoethoxy)-11′,12′-dimethyl-3,4-dihydro-2H,15′H-spiro[naphthalene-1,22′-[20]oxa[13]thia[1,14]diazatetracyclo[14.7.2.0^3,6.0^19,24]pentacosa [8,16,18,24]tetraen]-15′-one 13′,13′-dioxide], the 50% inhibitory concentration (IC50) in assay [1] (setting [3]) was found to be 1.2 nM; in assay [2] (setting [4]), 1140 nM.
As for `CO[C@H]1C[C@@H](N2[C@@H](C)C/C=C/[C@H](O)[C@@H]3CC[C@H]3CN3C[C@@]4(CCCc5cc(Cl)ccc54)COc4ccc(cc43)C(=O)NS2(=O)=O)C1` [Example 77, (1S,3′R,6′R,7′S,8′E,11′S)-6-chloro-7′-hydroxy-12′-(cis-3-methoxycyclobutyl)-11′-methyl-3,4-dihydro-2H,15′H-spiro[naphthalene-1,22′-[20]oxa[13]thia[1,12,14]triazatetracyclo[14.7.2.0^3,6.0^19,24]pentacosa[8,16,18,24]tetraen]-15′-one 13′,13′-dioxide], the concentration for half-maximal inhibition (IC50) in assay [1] (setting [3]) was determined as 0.593 nM; in assay [2] (setting [4]), 442 nM.
As for `C[C@@H]1[C@@H](C)C/C=C\[C@H](OCCN2CCOCC2)[C@@H]2CC[C@H]2CN2C[C@@]3(CCCc4cc(Cl)ccc43)COc3ccc(cc32)C(=O)NS1(=O)=O` [Example 724, (1S,3′R,6′R,7′S,8′Z,11′S,12′R)-6-chloro-11′,12′-dimethyl-7′-(2-(4-morpholinyl)ethoxy)-3,4-dihydro-2H,15′H-spiro[naphthalene-1,22′-[20]oxa[13]thia[1,14]diazatetracyclo[14.7.2.0^3,6.0^19,24]pentacosa [8,16,18,24]tetraen]-15′-one 13′,13′-dioxide], the IC50 in assay [1] (setting [5]) was found to be 0.485 nM; in assay [2] (setting [4]) it was 420 nM.
For the compound `CC(=O)NCCO[C@H]1/C=C/C[C@H](C)[C@@H](C)S(=O)(=O)NC(=O)c2ccc3c(c2)N(C[C@@H]2CC[C@H]21)C[C@@]1(CCCc2cc(Cl)ccc21)CO3` [Example 732, N-(2-(((1S,3′R,6′R,7′S,8′E,11′S,12′R)-6-chloro-11,12′-dimethyl-13′, 13′-dioxido-15′-oxo-3,4-dihydro-2H-spiro[naphthalene-1,22′-[20]oxa[13]thia[1,14]diazatetracyclo[14.7.2.0^3,6.0^19,24]pentacosa[8,16,18,24]tetraen]-7′-yl)oxy)ethyl)acetamide], the IC50 is 0.244 nM in assay [1] (setting [5]) and 170 nM in assay [2] (setting [4]).
As to `COC[C@@H]1C[C@@H](C)CC[C@H](O)[C@@H]2CC[C@H]2CN2C[C@@]3(CCCc4cc(Cl)ccc43)COc3ccc(cc32)C(=O)NS1(=O)=O` (single isomer, unassigned) [Example 1037], the IC50 in assay [1] (setting [3]) stood at 0.831 nM; in assay [2] (16 h incubation) it was 744 nM.
As to `O=C1NS(=O)(=O)[C@H](c2ccccn2)CC/C=C/[C@H](O)[C@@H]2CC[C@H]2CN2C[C@@]3(CCCc4cc(Cl)ccc43)COc3ccc1cc32` (single isomer, unassigned) [Example 693], the half-maximal inhibitory concentration (IC50) is 0.235 nM in assay [1] (setting [5]) and 742 nM in assay [2] (16 h).
